In ChEMBL document CHEMBL3046136, “Evaluation of antidepressant-like effect of 2-pyrazoline derivatives” (Med Chem Res, 2010):

Key:
[1] = tested on: Mus musculus; test: Antidepressant-like activity in Mus musculus albino (mouse) assessed as immobility time at 100 mg/kg, ip measured after 30 min by forced swim test (reference value: 167 +/- 17 sec); assay type: functional; conditions: route intraperitoneal
[2] = tested on: Mus musculus; test: Antidepressant-like activity in Mus musculus albino (mouse) assessed as latency for first immobilization at 100 mg/kg, ip measured after 30 min by forced swim test (reference value: 68 +/- 13 sec); assay type: functional; conditions: route intraperitoneal
[3] = tested on: Mus musculus; test: Toxicity in Mus musculus albino (mouse) assessed as increase in horizontal activity at 100 mg/kg, ip; assay type: organism-based; parameters: dose 100 mg/kg, route intraperitoneal; conditions: in vivo
[4] = tested on: Mus musculus; test: Toxicity in Mus musculus albino (mouse) assessed as increase in total distance travelled at 100 mg/kg, ip; assay type: organism-based; parameters: dose 100 mg/kg, route intraperitoneal; conditions: in vivo
[5] = tested on: Mus musculus; test: Toxicity in Mus musculus albino (mouse) assessed as resting time at 100 mg/kg, ip; assay type: organism-based; parameters: dose 100 mg/kg, route intraperitoneal; conditions: in vivo
[6] = tested on: Mus musculus; test: Toxicity in Mus musculus albino (mouse) assessed as decrease in total distance travelled at 100 mg/kg, ip; assay type: organism-based; parameters: dose 100 mg/kg, route intraperitoneal; conditions: in vivo
[7] = tested on: Mus musculus; test: Toxicity in Mus musculus albino (mouse) assessed as decrease in horizontal activity at 100 mg/kg, ip; assay type: organism-based; parameters: dose 100 mg/kg, route intraperitoneal; conditions: in vivo
[8] = tested on: Mus musculus; test: Toxicity in Mus musculus albino (mouse) assessed as resting time at 10 mg/kg, ip; assay type: organism-based; parameters: dose 10 mg/kg, route intraperitoneal; conditions: in vivo
[9] = tested on: Mus musculus; test: Toxicity in Mus musculus albino (mouse) assessed as increase in horizontal activity at 10 mg/kg, ip; assay type: organism-based; parameters: dose 10 mg/kg, route intraperitoneal; conditions: in vivo
[10] = tested on: Mus musculus; test: Toxicity in Mus musculus albino (mouse) assessed as increase in total distance travelled at 10 mg/kg, ip; assay type: organism-based; parameters: dose 10 mg/kg, route intraperitoneal; conditions: in vivo

O=C(CSC(=S)N1CCOCC1)N1N=C(c2cccs2)CC1c1ccccc1 (stereo not drawn)
Time [1]: 148 s
Time [2]: 73 s
Activity [3]: Toxic
Activity [4]: Toxic
Activity [5]: 77%

O=C(CSC(=S)N1CCSCC1)N1N=C(c2cccs2)CC1c1ccccc1 (stereo not drawn)
Time [1]: 84 s
Time [2]: 72 s
Activity [3]: Toxic
Activity [4]: Toxic
Activity [5]: 73%

Cc1ccc(C2CC(c3cccs3)=NN2C(=O)CSC(=S)N2CCOCC2)cc1 (stereo not drawn)
Time [1]: 129 s
Time [2]: 99 s
Activity [6]: Toxic
Activity [7]: Toxic
Activity [5]: 89%

Cc1ccc(C2CC(c3cccs3)=NN2C(=O)CSC(=S)N2CCSCC2)cc1 (stereo not drawn)
Time [1]: 113 s
Time [2]: 60 s
Activity [5]: 81%

COc1ccc(C2CC(c3cccs3)=NN2C(=O)CSC(=S)N2CCOCC2)cc1 (stereo not drawn)
Time [1]: 139 s
Time [2]: 94 s
Activity [5]: 84%

COc1ccc(C2CC(c3cccs3)=NN2C(=O)CSC(=S)N2CCSCC2)cc1 (stereo not drawn)
Time [1]: 134 s
Time [2]: 80 s
Activity [3]: Toxic
Activity [4]: Toxic
Activity [5]: 72%

O=C(CSC(=S)N1CCOCC1)N1N=C(c2cccs2)CC1c1ccc(Cl)cc1 (stereo not drawn)
Time [1]: 112 s
Time [2]: 36 s
Activity [5]: 80%

O=C(CSC(=S)N1CCSCC1)N1N=C(c2cccs2)CC1c1ccc(Cl)cc1 (stereo not drawn)
Time [1]: 136 s
Time [2]: 77 s
Activity [6]: Toxic
Activity [7]: Toxic
Activity [5]: 80%

N[C@@H]1C[C@H]1c1ccccc1.N[C@H]1C[C@@H]1c1ccccc1 (racemic) [TRANYLCYPROMINE]
Activity [8]: 89%

CN(C)CCCN1c2ccccc2CCc2ccc(Cl)cc21 [CLOMIPRAMINE]
Activity [9]: Toxic
Activity [8]: 73%
Activity [10]: Toxic
